Marks after values point to notes of the source that are not given here.
Tests used:
[1] = system: LPS-induced complement activation (plasma C3d protein levels); assay: In vivo PD model of LPS-induced complement activation in mice; set-up: species or system female C57BL/6J mice; conditions: for inhibition of C3d levels (LPS-induced complement activation): LPS i.p., plasma Western blot, FIG. 1; for inhibitory effect compared with LNP023: LPS-induced complement activation, C3d levels
Experimental: Experimental objective: To investigate the inhibitory effect of the compounds of the present disclosure on complement activation in mice induced by LPS stimulation. Experimental animals: female C57BL/6J mice, 7 to 9 weeks old, weighing 17 to 23 g; supplier: Shanghai Sipple-Bikai Laboratory Animal Co., Ltd.
Experimental procedure: 100 μg of lipopolysaccharide (LPS) in Salmonella typhimurium (Sigma) dissolved in 100 μL of sterile PBS was intraperitoneally injected to induce complement activation in mice. Negative control animals were intraperitoneally injected 100 μL of sterile PBS, and administered alone by tube feeding (PO). Positive control animals were intraperitoneally injected LPS and PO drug vehicles (0.5% (w/v) methyl cellulose and 0.5% (v/v) Tween 80). The time points for administration and plasma collection are as follows:
(§1) Sample collection: 0.3 mL of blood samples were collected from the orbital venous plexus. All blood samples were added to 1.5 mL commercial EDTA-K2 anticoagulant tubes (supplied by Jiangsu Kangjian Medical Apparatus Co., Ltd.). After collection, within half an hour, the blood sample was centrifuged at 4° C., 3000 g for 10 min to aspirate the supernatant plasma, which was put in dry ice immediately, and stored in a refrigerator at −80° C. for Western blot analysis of downstream C3d protein levels after complement activation.

[2] = Pharmacokinetic study in mice; format: in vivo, male C57BL/6J mice
Experimental: Experimental objective: To investigate in vivo plasma pharmacokinetics of the compounds of the present disclosure after a single intravenous injection and intragastric administration in male C57BL/6J mice.
Experimental animals: male C57BL/6J mice, 7 to 9 weeks old, weighing 17 to 23 g; supplier: Shanghai Sipple-Bikai Laboratory Animal Co., Ltd.
as §1, with “0.03” for “0.3”, “by puncture of” for “from”, “saphenous vein in experimental animals at each time point, and the actual blood collection time was recorded.” for “orbital venous plexus.”, “LC-MS/MS analysis.” for “Western blot analysis of downstream C3d protein levels after complement activation.”
Data analysis: Plasma concentrations were processed using the non-compartmental model of WinNonlinTM Version 6.3 (Pharsight, Mountain View, CA) pharmacokinetic software, and pharmacokinetic parameters Cl, T1/2, Cmax, and AUC0-last were calculated using the linear/log trapezoidal method.

[3] = molecular target: alternative complement pathway in human serum; assay: Wieslab alternative complement pathway activation inhibition (enzyme activity test); format: biochemical; conditions: human serum diluted 1:23, Wieslab alternative pathway kit; read-out: AP MAC IC50
Experimental: The objective of this experiment is to determine the inhibitory activity of the compounds of the present disclosure on the alternative complement pathway in human serum by using the Wieslab® complement system alternative pathway kit.
Serum was diluted with diluent (1:23). Drugs were added to the diluted serum with 8 concentration gradients of up to 10 mM or 50 mM in a 5-fold serial dilution. […] The mixture of compound and serum was added to a 96-well plate (100 μL/well) provided in the kit, and activated at 37° C. for 1 hour. The plate was washed three times with wash buffer. The plate was added with detection antibody (100 μL) provided in the kit and incubated at room temperature for 30 min. The plate was washed three times with wash buffer. The plate was added with substrate (100 μL) and incubated at room temperature for 30 min.

[4] = Pharmacokinetic study in rats; format: in vivo, male Wistar Han rats
Experimental: Experimental objective: To investigate in vivo plasma pharmacokinetics of the compounds of the present disclosure after a single intravenous injection and intragastric administration in male Wistar Han rats.
Experimental procedure: injection administration (IV): a dose of 1 mpk (vehicle: 30% PEG300/10% Cremphor EL/60% PBS (1×pH 7.4)); oral administration (PO): a dose of 5 mpk or 30 mpk (vehicle: 30% PEG300/10% Cremphor EL/60% PBS (1×pH 7.4))
Sample collection: About 0.3 mL of blood samples were collected by puncture of the jugular vein in experimental animals at each time point, and the actual blood collection time was recorded. All blood samples were added to 1.5 mL commercial EDTA-K2 anticoagulant tubes (supplied by Jiangsu Kangjian Medical Apparatus Co., Ltd.). After collection, the blood sample was centrifuged at 4° C., 3200 g for 10 min to aspirate the supernatant plasma, which was put in dry ice immediately, and stored in a refrigerator at −80° C. for LC-MS/MS analysis.
Data analysis: Plasma concentrations were processed using the non-compartmental model of Phoenix WinNonlin 6.3 pharmacokinetic software, and pharmacokinetic parameters Cl, Cmax, T1/2, and AUC0-last were calculated using the linear/log trapezoidal method.

[5] = system: Sheep Anti-Rat Fx1A Serum induced Heymann nephritis; assay: In vivo pharmacodynamic model of passive Heymann nephritis in rats; set-up: species or system male SD rats; conditions: intragastric twice a day for 14 days, FIG. 2
Description: Experimental objective: To investigate the ability of the compounds of the present disclosure to improve renal function of Sheep Anti-Rat Fx1A Serum induced Heymann nephritis in rats, including the evaluation of reducing proteinuria level and improving renal tissue damage.
Experimental animals: male SD rats, 7 to 10 weeks old, weighing 200 to 300 g; supplier: Beijing Vital River Laboratory Animal Technology Co., Ltd.
Urine was collected from rats on D-2 before administration. […]
Kidney sample collection: All animals were euthanized with CO2 inhalation anesthesia on Day 15, and bilateral kidneys were collected. […] Urine total protein (uTP) in rats was detected without dilution; if exceeding the upper detection limit, it was 10-fold diluted (10 μL of sample+90 μL of saline (0.9% saline)) first (Decrease mode); if still exceeding the upper detection limit after 10-fold dilution, it was 100-fold diluted (2 μL of sample+198 μL of saline (0.9% saline)) (Increase mode). Data were read by the analytical instrument HITACHI LST008 AS (P). • (2) Kidney pathological scoring: The degree of drug damage to rat kidneys (paraffin sections) was analyzed by HE staining. […]

[6] = male, Wistar Han, rat, plasma, 1 mg/kg, IV (1 mpk)
[7] = male, C57BL/6J, mouse, plasma, 1 mg/kg, IV (1 mpk)
[8] = male, C57BL/6J, mouse, plasma, 10 mg/kg, PO (10 mpk)

| Structure (SMILES) | inhibition of C3d levels (LPS-induced complement activation) [1] | inhibitory effect compared with LNP023 [1] | Cl ([2]; IV (1 mpk)) | T1/2 ([2]; IV (1 mpk)) | AUC0-last ([2]; PO (10 mpk)) | Cmax ([2]; PO (10 mpk)) | IC50 [3] | other results |
| --- | --- | --- | --- | --- | --- | --- | --- | --- |
| COc1cc(C)c2[nH]ccc2c1CN1CC[C@H](C2CC2)C[C@H]1c1ccc(C(=O)O)cc1 [Compound 3A] | significantly inhibit C3d levels | better inhibitory effect than that of LNP023 | 12.0 mL/min/kg | 3.9 h | 11.156 µM·h | 4770 nM | 23.6 nM |  |
| COc1cc(C)c2[nH]ccc2c1CN1CC[C@@H](C2CC2)C[C@H]1c1ccc(C(=O)O)cc1 [Compound 3C] | significantly inhibit C3d levels | better inhibitory effect than that of LNP023 | 11.1 mL/min/kg | 3.4 h | 23.3 µM·h | 6320 nM | 51.7 nM | Cl ([4]; IV (1 mpk)): 4.6 mL/min/kg; T1/2 ([4]; IV (1 mpk)): 3.8 h; F % ([4]; PO (5 mpk or 30 mpk)): 62%; Cmax ([4]; PO (5 mpk or 30 mpk), dose-normalized data): 838 nM; AUC0-last ([4]; PO, a dose of 5 mpk, dose-normalized data): 5399^a nM · h |
| CCO[C@H]1CCN(Cc2c(OC)cc(C)c3[nH]ccc23)[C@H](c2ccc(C(=O)O)cc2)C1 [LNP023, reference compound] | significantly inhibit C3d levels |  |  |  |  |  |  | clearance [4, 6]: 6.7 mL/min/kg; half-life [4, 6]: 1.2 h; AUC(0-t) ([4]; male, Wistar Han, rat, plasma, 30 mg/kg, PO, a dose of 30 mpk, dose-normalized data): 2.19 µM·h; bioavailability ([4]; male, Wistar Han, rat, plasma, PO (5 mpk or 30 mpk)): 38%; Cmax ([4]; male, Wistar Han, rat, plasma, PO (5 mpk or 30 mpk), dose-normalized data): 379 nM; clearance [2, 7]: 18.4 mL/min/kg; half-life [2, 7]: 1.3 h; AUC(0-t) [2, 8]: 9.3 µM·h; Cmax [2, 8]: 2500 nM; urinary protein levels and renal function [5]: significantly inhibit urinary protein levels in rats and improve renal function in rats |

Reference: US20240109861A1, “SERIES OF PIPERIDINE-SUBSTITUTED BENZOIC ACID COMPOUNDS, AND USE THEREOF” (priority 2020, published 2024)
